The text below walks through data of PubChem BioAssay AID1996.

Structures are written as SMILES. In brackets after ≈: the same amount, converted by molar mass. Bounds are passed on as bounds.

For this series the following is noted: buffer; pH 7.4; 200.0 µM.
`CN1C(=O)C(C)(C)N(C(=O)c2cccc([N+](=O)[O-])c2)c2ccccc21` gave a solubility (kinetic) of 29.5 µg/mL (≈ 86.9 µM).
In turn, `COc1ccc(CN2C(=O)CNC2=S)cc1` returned a kinetic solubility of more than 35.4 µg/mL.
With `CC(C)c1ccccc1OCCCCCN1CCOCC1` the figure was 25.8 µg/mL (≈ 88.5 µM); with `COCC(=O)Nc1ccc(N2CCOCC2)c(S(=O)(=O)Nc2ccccc2OC)c1`, more than 65.3 µg/mL; with `CCOc1ccccc1NCc1cc(=O)oc2cc(C)ccc12`, 6.2 µg/mL (≈ 20 µM).
The figure for `O=C(CCNS(=O)(=O)c1ccc(OC(F)(F)F)cc1)NC1CC1` is more than 52.8 µg/mL; for `O=C(c1ccc([N+](=O)[O-])o1)N1CCCCCC1` it is more than 35.7 µg/mL.
The figure for `Cc1ccc(C(=O)C2CCN(S(=O)(=O)c3c(C)noc3C)CC2)cc1` is 13.6 µg/mL (≈ 37.5 µM); for `Cc1ccc(N=C(N)N=C(N)N)c(C)c1` it is 28.8 µg/mL (≈ 140 µM).
`COC(=O)C1=C(C)NC(C)=C(C(=O)OC)C1c1ccc(C)o1` yielded a solubility (kinetic) of 13 µg/mL (≈ 42.6 µM).
The molecule `COc1ccc(S(=O)(=O)NCc2c(-c3ccccc3)noc2C)c(OC)c1` displayed a kinetic solubility of 4.4 µg/mL (≈ 11.3 µM).
Take `C=COCCCNc1ncnc2sc(-c3ccccc3)cc12`: the kinetic solubility amounted to 1.4 µg/mL (≈ 4.5 µM).
With `Cc1cc(=O)[nH]c2ccc(S(=O)(=O)NCc3ccccc3)cc12` the figure was 2.5 µg/mL (≈ 7.61 µM).
With `COc1ccc(CNC(=O)C2CCN(S(C)(=O)=O)CC2)cc1` the figure was 45.2 µg/mL (≈ 138 µM); with `CC(=O)Nc1sc(C)c(C)c1C(=O)OCC(=O)Nc1cccc(C)c1`, 1.1 µg/mL (≈ 3.05 µM); with `S=C(NCc1ccccc1)N1CCc2ccccc2C1`, 5.6 µg/mL (≈ 19.8 µM).
The figure for `Cc1ccc(N2Cc3ccccc3C2=O)cc1` is 7.8 µg/mL (≈ 34.9 µM); for `Cc1ccc(S(=O)(=O)Nc2cccnc2)c(C)c1C` it is 9.1 µg/mL (≈ 32.9 µM); for `COc1cc(C(=O)OCC(=O)Nc2ccc(S(=O)(=O)NC3=NCCCCC3)cc2)cc(OC)c1OC` it is 73.5 µg/mL (≈ 141 µM).
On to `COc1ccc(S(=O)(=O)N2CCCC2)cc1OC`, for which the kinetic solubility is 32.7 µg/mL (≈ 121 µM).
Molecule `COc1ccc(CCNC(=S)N(C)C)cc1OC` returned a solubility (kinetic) of more than 40.3 µg/mL.
With `O=C(NCCCn1ccnc1)/C(=C/c1ccco1)NC(=O)c1ccco1` the figure was more than 53.2 µg/mL; with `COC(=O)c1cc(S(=O)(=O)N2CCCCCC2)cn1C`, 38.8 µg/mL (≈ 129 µM).
The molecule `CC(NS(=O)(=O)c1ccccc1Cl)C1CC2CCC1C2` (stereo not given) came in with a kinetic solubility of 1.1 µg/mL (≈ 3.5 µM). This solubility kinetic is about 35-fold lower than that of the molecule before.
The figure for `CN(C)S(=O)(=O)c1cccc(NC(=O)c2cc(=O)[nH]c(=O)[nH]2)c1` is more than 50.8 µg/mL.
The figure for `O=C(COc1ccccc1C(=O)O)Nc1cccc2ccccc12` is more than 48.2 µg/mL; for `CCc1ccc(NS(=O)(=O)c2ccc3oc(=O)ccc3c2)cc1` it is 41.2 µg/mL (≈ 125 µM).
The figure for `COc1ccc(NC(=O)Nc2cccc(Cl)c2Cl)c(OC)n1` is less than 0.2 µg/mL; for `Cc1ccc(F)cc1NC(=O)N1CCN(C2c3ccccc3-c3ccccc32)CC1` it is 4.9 µg/mL (≈ 12.2 µM).
Take `CCc1cccc(CC)c1NC(=O)C1CCN(C(=O)c2ccco2)CC1`: the solubility (kinetic) worked out at 51.2 µg/mL (≈ 144 µM).
The figure for `Cc1ccc(NC(=O)CCc2ccc(S(=O)(=O)N3CCOCC3)cc2)c(Cl)c1` is 6.1 µg/mL (≈ 14.4 µM); for `CCOc1ccccc1NC(=O)N1CCc2ccccc2C1` it is 33.1 µg/mL (≈ 112 µM).
The figure for `CC(C)(C)NC(=O)CN(C(=O)C(=O)Nc1ccc2c(c1)OCCO2)C1CC1` is more than 56.3 µg/mL.
The figure for `O=C(NCc1cccc(Cl)c1)c1ccc2c(c1)OCCO2` is 3.2 µg/mL (≈ 10.5 µM).
As to `N#CC(=NCc1cccnc1)C1=C(O)c2ccccc2C1=O`, the solubility (kinetic) turned out to be 6.4 µg/mL (≈ 22.1 µM).
The figure for `CCOP(=O)(OCC)C(Nc1cccc([N+](=O)[O-])c1)c1ccccc1` (stereo not given) is 7.8 µg/mL (≈ 21.4 µM).
The figure for `CC1=CC(C)(C)NC(=S)N1c1ccc(C)c(C)c1` is 2.1 µg/mL (≈ 8.06 µM); for `O=C(O)c1ccc(S(=O)(=O)N2CCN(c3ccccn3)CC2)cc1` it is more than 52.1 µg/mL.
The molecule `O=C(COC(=O)COc1cccc(F)c1)Nc1nc2ccccc2s1` registered a kinetic solubility of 45.1 µg/mL (≈ 125 µM).
With `CC(C)(C)C1CCC(C(=O)Nc2nccs2)CC1` (stereo not given) the figure was 0.3 µg/mL (≈ 1.13 µM).
